From ChEMBL document CHEMBL4689842, “EUbOPEN Chemogenomics Library wave 1” (2021)

Columns and labels:
Assay type in all cases: toxicity, cell-based
Fibroblast = experiment: Incucyte cell viability with human fibroblast; conditions: 10 µM, compound concentration 10 uM
HEK-293T = experiment: Incucyte cell viability with HEK293T; conditions: human, 10 µM, compound concentration 10 uM
U2OS = experiment: Incucyte cell viability with U2OS; conditions: human, 10 µM, compound concentration 10 uM
[1] = 0 h, replicate number 1, timepoint 0 hours
[2] = 6 h, replicate number 1, timepoint 6 hours
[3] = 12 h, replicate number 1, timepoint 12 hours
[4] = 18 h, replicate number 1, timepoint 18 hours
[5] = 24 h, replicate number 1, timepoint 24 hours
[6] = 24 h, replicate number 2, timepoint 24 hours
[7] = 0 h, replicate number 2, timepoint 0 hours
[8] = 12 h, replicate number 2, timepoint 12 hours
[9] = 6 h, replicate number 2, timepoint 6 hours
[10] = 18 h, replicate number 2, timepoint 18 hours
Further: filed as whole numbers so only -1 and 0 and 1 occur.

## CC[C@@H]1CN(C(=O)NCC(F)(F)F)C[C@@H]1c1cnc2cnc3[nH]ccc3n12 [UPADACITINIB]
Fibroblast; [1]
  Growth Rate: 0
Fibroblast; [2]
  Growth Rate: 1
Fibroblast; [3]
  Growth Rate: 1
Fibroblast; [4]
  Growth Rate: 1
Fibroblast; [5]
  Growth Rate: 1
HEK-293T; [1]
  Growth Rate: 0
HEK-293T; [6]
  Growth Rate: 1
U2OS; [1]
  Growth Rate: 0
U2OS; [7]
  Growth Rate: 1
U2OS; [2]
  Growth Rate: 0
U2OS; [3]
  Growth Rate: 0
U2OS; [8]
  Growth Rate: 1
U2OS; [4]
  Growth Rate: 0
U2OS; [5]
  Growth Rate: 0

## CCN(CCO)CCCOc1ccc2c(Nc3cc(CC(=O)Nc4cccc(F)c4)[nH]n3)ncnc2c1 [DEFOSBARASERTIB]
Fibroblast; [7]
  Growth Rate: 1
Fibroblast; [2]
  Growth Rate: 0
Fibroblast; [3]
  Growth Rate: 0
Fibroblast; [4]
  Growth Rate: 0
Fibroblast; [5]
  Growth Rate: 0
HEK-293T; [7]
  Growth Rate: 1
HEK-293T; [9]
  Growth Rate: 1
HEK-293T; [5]
  Growth Rate: 1
U2OS; [1]
  Growth Rate: 1
U2OS; [2]
  Growth Rate: 0
U2OS; [3]
  Growth Rate: 0
U2OS; [4]
  Growth Rate: 0
U2OS; [5]
  Growth Rate: 0

## C[C@@H](NC(=O)Nc1cc2[nH]ncc2c(CO)n1)c1ccccc1 [ERKi]
Fibroblast; [1]
  Growth Rate: 0
Fibroblast; [3]
  Growth Rate: 1
Fibroblast; [4]
  Growth Rate: 1
Fibroblast; [5]
  Growth Rate: 0
Fibroblast; [6]
  Growth Rate: 1
HEK-293T; [1]
  Growth Rate: 0
HEK-293T; [6]
  Growth Rate: 1
U2OS; [1]
  Growth Rate: 0
U2OS; [2]
  Growth Rate: 0
U2OS; [3]
  Growth Rate: 0
U2OS; [4]
  Growth Rate: 0
U2OS; [5]
  Growth Rate: 0

## O=C1c2ccc(Nc3ccc(F)cc3F)cc2CCc2ccc(OC[C@H](O)CO)cc21 [Skepinone-L]
Fibroblast; [2]
  Growth Rate: 0
Fibroblast; [3]
  Growth Rate: 0
Fibroblast; [4]
  Growth Rate: 0
Fibroblast; [5]
  Growth Rate: 0
HEK-293T; [2]
  Growth Rate: 0
HEK-293T; [5]
  Growth Rate: 1
U2OS; [1]
  Growth Rate: 0
U2OS; [2]
  Growth Rate: 0
U2OS; [3]
  Growth Rate: 0
U2OS; [4]
  Growth Rate: 0
U2OS; [10]
  Growth Rate: 1
U2OS; [5]
  Growth Rate: 0

## O=C(N1CCS(=O)(=O)CC1)N1C[C@H](c2ccc(OC(F)(F)F)cc2)C[C@H](c2nc(C3CC3)no2)C1 [BAY-386]
Fibroblast; [1]
  Growth Rate: 0
Fibroblast; [9]
  Growth Rate: 0
Fibroblast; [8]
  Growth Rate: 0
Fibroblast; [10]
  Growth Rate: 0
Fibroblast; [5]
  Growth Rate: 1
Fibroblast; [6]
  Growth Rate: 0
HEK-293T; [1]
  Growth Rate: 0
HEK-293T; [2]
  Growth Rate: 1
HEK-293T; [3]
  Growth Rate: 0
HEK-293T; [8]
  Growth Rate: 1
HEK-293T; [4]
  Growth Rate: 0
HEK-293T; [5]
  Growth Rate: 0
U2OS; [7]
  Growth Rate: 0
U2OS; [2]
  Growth Rate: 0
U2OS; [9]
  Growth Rate: 1
U2OS; [3]
  Growth Rate: 0
U2OS; [8]
  Growth Rate: 1
U2OS; [4]
  Growth Rate: 0
U2OS; [10]
  Growth Rate: 1
U2OS; [5]
  Growth Rate: 0
U2OS; [6]
  Growth Rate: 1

## CC(C)(N)C(=O)N[C@H](COCc1ccccc1)C(=O)N1CCC2(CC1)CN(S(C)(=O)=O)c1ccccc12.CS(=O)(=O)O [IBUTAMOREN MESYLATE]
Fibroblast; [1]
  Growth Rate: 1
Fibroblast; [2]
  Growth Rate: 0
Fibroblast; [9]
  Growth Rate: 1
Fibroblast; [3]
  Growth Rate: 0
Fibroblast; [8]
  Growth Rate: 1
Fibroblast; [4]
  Growth Rate: 0
Fibroblast; [5]
  Growth Rate: 0
HEK-293T; [1]
  Growth Rate: 0
HEK-293T; [2]
  Growth Rate: 0
HEK-293T; [3]
  Growth Rate: 1
HEK-293T; [4]
  Growth Rate: 0
HEK-293T; [10]
  Growth Rate: 1
HEK-293T; [5]
  Growth Rate: 0
HEK-293T; [6]
  Growth Rate: 1
U2OS; [9]
  Growth Rate: 1
U2OS; [8]
  Growth Rate: 1
U2OS; [4]
  Growth Rate: 1
U2OS; [5]
  Growth Rate: 1

## NC(=O)[C@@H]1CCCN1C(=O)[C@H](Cc1cnc[nH]1)NC(=O)[C@@H]1CCC(=O)N1 [PROTIRELIN]
Fibroblast; [1]
  Growth Rate: 0
Fibroblast; [7]
  Growth Rate: 1
Fibroblast; [9]
  Growth Rate: 0
Fibroblast; [8]
  Growth Rate: 1
Fibroblast; [4]
  Growth Rate: 1
Fibroblast; [10]
  Growth Rate: 0
Fibroblast; [5]
  Growth Rate: 1
Fibroblast; [6]
  Growth Rate: 0
HEK-293T; [1]
  Growth Rate: 0
HEK-293T; [2]
  Growth Rate: 1
HEK-293T; [3]
  Growth Rate: 1
HEK-293T; [4]
  Growth Rate: 1
HEK-293T; [5]
  Growth Rate: 1
HEK-293T; [6]
  Growth Rate: 0
U2OS; [1]
  Growth Rate: 0
U2OS; [2]
  Growth Rate: 1
U2OS; [9]
  Growth Rate: 0
U2OS; [3]
  Growth Rate: 0
U2OS; [4]
  Growth Rate: 0
U2OS; [10]
  Growth Rate: 1
U2OS; [5]
  Growth Rate: 0

## COc1ccc(Br)cc1S(=O)(=O)NC(=O)/C=C/c1ccccc1Cc1ccc2ccccc2c1
Fibroblast; [1]
  Growth Rate: 1
Fibroblast; [7]
  Growth Rate: 0
Fibroblast; [2]
  Growth Rate: 0
Fibroblast; [9]
  Growth Rate: 1
Fibroblast; [3]
  Growth Rate: 1
Fibroblast; [4]
  Growth Rate: 0
Fibroblast; [10]
  Growth Rate: 1
Fibroblast; [5]
  Growth Rate: 0
Fibroblast; [6]
  Growth Rate: 1
HEK-293T; [7]
  Growth Rate: 0
HEK-293T; [2]
  Growth Rate: 0
HEK-293T; [9]
  Growth Rate: 1
HEK-293T; [3]
  Growth Rate: 0
HEK-293T; [8]
  Growth Rate: 1
HEK-293T; [4]
  Growth Rate: 0
HEK-293T; [10]
  Growth Rate: 1
HEK-293T; [5]
  Growth Rate: 0
HEK-293T; [6]
  Growth Rate: 1
U2OS; [1]
  Growth Rate: 0
U2OS; [9]
  Growth Rate: 0
U2OS; [8]
  Growth Rate: 1
U2OS; [4]
  Growth Rate: 1
U2OS; [5]
  Growth Rate: 1
U2OS; [6]
  Growth Rate: 0

## CC(C)C[C@H](NC(=O)N1CCCCCC1)C(=O)N[C@H](Cc1cn(C)c2ccccc12)C(=O)N[C@H](Cc1ccccn1)C(=O)O
Fibroblast; [1]
  Growth Rate: 0
Fibroblast; [9]
  Growth Rate: 0
Fibroblast; [8]
  Growth Rate: 0
Fibroblast; [4]
  Growth Rate: 1
Fibroblast; [5]
  Growth Rate: 1
Fibroblast; [6]
  Growth Rate: 0
HEK-293T; [1]
  Growth Rate: 0
HEK-293T; [2]
  Growth Rate: 0
HEK-293T; [9]
  Growth Rate: 1
HEK-293T; [3]
  Growth Rate: 0
HEK-293T; [8]
  Growth Rate: 1
HEK-293T; [4]
  Growth Rate: 1
HEK-293T; [5]
  Growth Rate: 1
U2OS; [1]
  Growth Rate: 0
U2OS; [9]
  Growth Rate: 1
U2OS; [8]
  Growth Rate: 1
U2OS; [4]
  Growth Rate: 1
U2OS; [5]
  Growth Rate: 1

## Cc1cc2c(cc1-c1cc(/C=C/C(=O)O)ccc1O)C(C)(C)CCC2(C)C
Fibroblast; [1]
  Growth Rate: 0
Fibroblast; [3]
  Growth Rate: 1
Fibroblast; [4]
  Growth Rate: 1
Fibroblast; [5]
  Growth Rate: 1
HEK-293T; [1]
  Growth Rate: 0
HEK-293T; [2]
  Growth Rate: 1
HEK-293T; [3]
  Growth Rate: 1
HEK-293T; [4]
  Growth Rate: 1
HEK-293T; [5]
  Growth Rate: 1
U2OS; [1]
  Growth Rate: 0
U2OS; [9]
  Growth Rate: 0
U2OS; [3]
  Growth Rate: 1
U2OS; [8]
  Growth Rate: 0
U2OS; [4]
  Growth Rate: 1
U2OS; [10]
  Growth Rate: 0
U2OS; [5]
  Growth Rate: 1

## CCCOc1ccn2c(C(C)=O)cc(-c3cccc(OC)c3)c2c1
Fibroblast; [1]
  Growth Rate: 0
Fibroblast; [9]
  Growth Rate: 0
Fibroblast; [8]
  Growth Rate: 1
Fibroblast; [10]
  Growth Rate: 0
Fibroblast; [5]
  Growth Rate: 1
HEK-293T; [1]
  Growth Rate: 0
HEK-293T; [6]
  Growth Rate: 1
U2OS; [1]
  Growth Rate: 0
U2OS; [2]
  Growth Rate: 0
U2OS; [3]
  Growth Rate: 1
U2OS; [4]
  Growth Rate: 1
U2OS; [5]
  Growth Rate: 1

## CC(C)(Cc1ccccc1)NCC(O)c1ccc(O)c(NS(C)(=O)=O)c1.Cl (stereo not given) [ZINTEROL HYDROCHLORIDE]
Fibroblast; [8]
  Growth Rate: 1
Fibroblast; [10]
  Growth Rate: 1
Fibroblast; [6]
  Growth Rate: 1
HEK-293T; [1]
  Growth Rate: 0
HEK-293T; [2]
  Growth Rate: 1
HEK-293T; [9]
  Growth Rate: 0
HEK-293T; [3]
  Growth Rate: 1
HEK-293T; [8]
  Growth Rate: 0
HEK-293T; [4]
  Growth Rate: 1
HEK-293T; [10]
  Growth Rate: 0
HEK-293T; [5]
  Growth Rate: 1
HEK-293T; [6]
  Growth Rate: 0
U2OS; [2]
  Growth Rate: 0
U2OS; [3]
  Growth Rate: 1
U2OS; [4]
  Growth Rate: 0
U2OS; [10]
  Growth Rate: 1
U2OS; [5]
  Growth Rate: 1

## CC(C)c1ccc(CC(=O)N2CCC[C@@H](c3cccc(OC(C)(C)C(=O)O)c3)C2)cc1
Fibroblast; [2]
  Growth Rate: 0
Fibroblast; [3]
  Growth Rate: 1
Fibroblast; [8]
  Growth Rate: 0
Fibroblast; [4]
  Growth Rate: 0
Fibroblast; [5]
  Growth Rate: 0
HEK-293T; [1]
  Growth Rate: 1
HEK-293T; [7]
  Growth Rate: 0
HEK-293T; [2]
  Growth Rate: 0
HEK-293T; [9]
  Growth Rate: 1
HEK-293T; [3]
  Growth Rate: 1
HEK-293T; [4]
  Growth Rate: 0
HEK-293T; [5]
  Growth Rate: 0
HEK-293T; [6]
  Growth Rate: 1
U2OS; [1]
  Growth Rate: 0
U2OS; [9]
  Growth Rate: 0
U2OS; [8]
  Growth Rate: 1
U2OS; [4]
  Growth Rate: 1
U2OS; [5]
  Growth Rate: 1

## Cc1c(F)cccc1NC(=O)Nc1ccc(Cl)c(S(=O)(=O)[C@H]2CCCNC2)c1O [DANIRIXIN]
Fibroblast; [1]
  Growth Rate: 0
Fibroblast; [3]
  Growth Rate: 1
Fibroblast; [4]
  Growth Rate: 1
Fibroblast; [5]
  Growth Rate: 1
HEK-293T; [1]
  Growth Rate: 0
HEK-293T; [2]
  Growth Rate: 0
HEK-293T; [3]
  Growth Rate: 0
HEK-293T; [4]
  Growth Rate: 0
HEK-293T; [5]
  Growth Rate: 0
U2OS; [1]
  Growth Rate: 0
U2OS; [7]
  Growth Rate: 1
U2OS; [2]
  Growth Rate: 0
U2OS; [9]
  Growth Rate: 1
U2OS; [3]
  Growth Rate: 0
U2OS; [8]
  Growth Rate: 1
U2OS; [4]
  Growth Rate: 0
U2OS; [10]
  Growth Rate: 1
U2OS; [5]
  Growth Rate: 0
U2OS; [6]
  Growth Rate: 1

## CC(C)NCC(O)COc1cccc2ccccc12.Cl (stereo not given) [PROPRANOLOL HYDROCHLORIDE]
Fibroblast; [1]
  Growth Rate: 0
Fibroblast; [2]
  Growth Rate: 1
Fibroblast; [9]
  Growth Rate: 0
Fibroblast; [3]
  Growth Rate: 1
Fibroblast; [8]
  Growth Rate: 0
Fibroblast; [4]
  Growth Rate: 1
Fibroblast; [10]
  Growth Rate: 0
Fibroblast; [5]
  Growth Rate: 1
Fibroblast; [6]
  Growth Rate: 0
HEK-293T; [7]
  Growth Rate: 0
HEK-293T; [2]
  Growth Rate: 0
HEK-293T; [9]
  Growth Rate: 1
HEK-293T; [3]
  Growth Rate: 0
HEK-293T; [4]
  Growth Rate: 0
HEK-293T; [5]
  Growth Rate: 0
U2OS; [1]
  Growth Rate: 0
U2OS; [2]
  Growth Rate: 0
U2OS; [3]
  Growth Rate: 1
U2OS; [4]
  Growth Rate: 1
U2OS; [5]
  Growth Rate: 1
